How the values were obtained:
Assay type in all cases: cell-based, human
Vδ1 T cells [1] = assay: Flow cytometry of CD39, CD73 and PD-L1 expression in expanded Vδ1 T cells
Excerpt: Peripheral Blood Mononuclear Cells (PBMCs) were obtained by density centrifugation on Ficoll-Paque (Eurobio, Les Ulis, France) of blood samples from healthy donors and breast cancer patients. Healthy donor samples were provided by the Etablissement Français du Sang (Convention EFS-OCPM no 21PLER2018-0069) and the blood of patients was provided by the ICM (BCB-EC-1-FR-ICM-ENR-269-004-CRB). […] Vδ1 T cells were isolated from PBMCs by a positive immunoselection using the anti-human Vδ1 antibody (Beckman Coulter) and anti-IgG1 magnetic beads (Miltenyi Biotec). Briefly, 300.106 cells were incubated with 10 μg of anti-human Vδ1 antibody in 5 ml of PBS supplemented with 2% SVF and EDTA (2 mM) for 1 hour at 4° C., then washed and incubated with 200 μl of anti-IgG1 magnetic beads for 1 hour at 4° C., then washed and collected on column according to the manufacturer's instructions (Miltenyi Biotec). Reproducible high purity of Vδ1 T cells (>90%) was obtained with this protocol. Purified Vδ1 T cells (2.106 cells/ml) were stimulated with 2 μg/mL of PHA in the presence of syngeneic macrophages isolated using their adherence properties. Briefly, PBMC (2.106/ml) were incubated in RPMI 10% FCS for 1 hour at 37° C. in 96 well-plates to allow to monocytes to adhere and differentiate in macrophages. Non-adherent cells were removed by 2 washes with RPMI medium. Purified Vδ1 T cells were added to macrophages, activated by PHA and expanded in the complete medium containing RPMI 1640/Glutamax medium supplemented with 5% human AB serum and 5% fetal calf serum (FCS) in the presence of rhIL-2 (control) or rhIL-2+rhIL-21 (experimental condition) at 37° C. in humidified atmosphere with 5% CO2. Every 2 days, fresh medium is added and after 1 week Vδ1 T cells were separated from adherent macrophages and amplified in the complete medium with cytokines for 2 more weeks before phenotyping and analysis.
Cells were first incubated at 4° C. for 30 min with Fc-block solution to minimize non-specific binding of antibodies to Fc receptors, then incubated with a dye cell viability and the panel of antibodies in the staining buffer (PBS-2% FCS) at 4° C. for 30 min, cells were then washed and fixed in 1% paraformaldehyde. Data were acquired with a Cytoflex cytometer (Beckman-Coulter) and analyzed with the FlowJo software.
Peripheral Blood Mononuclear Cells (PBMCs) were obtained by density centrifugation on Ficoll-Paque (Eurobio, Les Ulis, France) of blood samples from healthy donors and breast cancer patients. Healthy donor samples were provided by the Etablissement Français du Sang and the blood of patients was provided by the Institut regional du Cancer de Montpellier (ICM). […] Vδ1 T cells were isolated from PBMCs by a positive immunoselection using the anti-human Vδ1 antibody (Beckman Coulter) and anti-IgG1 magnetic beads (Miltenyi Biotec). Briefly, 300.106 cells were incubated with 10 μg of anti-human Vδ1 antibody in 5 ml of PBS supplemented with 2% SVF and EDTA (2 mM) for 1 hour at 4° C., then washed and incubated with 200 μl of anti-IgG1 magnetic beads for 1 hour at 4° C., then washed and collected on column according to the manufacturer's instructions (Miltenyi Biotec). Reproducible high purity of Vδ1 T cells (>90%) was obtained with this protocol. Purified Vδ1 T cells (2.106 cells/ml) were stimulated with 2 μg/mL of PHA in the presence of syngeneic macrophages isolated using their adherence properties. […]

Vδ1 T cells [2] = assay: Adenosine measurement by MALDI TOF spectrometry in supernatants of amplified Vδ1 T cells
Description: Amplified Vδ1 T cells (2.106 cells/mL) were washed in cold PBS and resuspended in PBS supplemented with 50 mM AMP (Sigma) at 4° C. for 30 min. After centrifugation, adenosine levels in supernatants were analyzed by MALDI-TOF mass spectrometry, as previously described by Bastid et al..

Vδ1 T cells [3] = assay: ELISA of IL-10, IL-8 and TGF-β in supernatants of expanded Vδ1 T cells
Excerpt: Phytohemagglutinin (PHA) was purchased from Thermofisher Scientific. The anti-human CD3 (UCHT1), and the anti-human TCR γδ and TCR Vδ1 antibodies were purchased from Beckman Coulter (Brea, Calif., USA). Anti-human CD3, CD73, CD39 and their isotypically matched control mouse antibodies were from BD Biosciences (San Jose, Calif., USA). The anti-human TCR γδ antibody used for IHC was from Santa Cruz Biotechnology (USA). Recombinant human IL-2 (rhIL-2) was from Novartis Pharma (Rueil-Malmaison, France), and recombinant IL-21 (rhIL-21) was from Miltenyi Biotec (Paris, France). ELISA kits for detecting human IL-10 and IL-8 were from BD Biosciences (San Jose, Calif., USA). ELISA kit for the detection of human TGFβ was from RD system.
Expanded Vδ1 T cells (2.106 cells/mL) were incubated in fresh medium without cytokines in wells coated or not with the anti-CD3 antibody (UCHT1) for 6 h, and then supernatants were collected. IL-8 and IL-10 protein levels were assessed using the relevant BD Biosciences Opteia Kits. The mean values of duplicate samples from the same experiment are shown for each data point with their standard error of the mean (SEM).

Row | Molecule | percentage of CD39-positive cells (Vδ1 T cells [1]; Vδ1 T cells from healthy donors expanded with rhIL-2+rhIL-21 vs rhIL-2 only (control)) | fraction of Vδ1 T cells expressing PD-L1 (Vδ1 T cells [1]; cells exposed to rhIL-21, about 50% in the control condition) | fraction of CD39/CD73-positive Vδ1 T cells (Vδ1 T cells [1]; expanded with rhIL-2+rhIL-21, vs 18% in control cells) | fraction of CD73-positive Vδ1 T cells (Vδ1 T cells [1]; expanded with rhIL-2+rhIL-21, vs 20% in the control condition (rhIL-2 only)) | percentage of PD-L1+ in CD73-positive Vδ1 T cells (Vδ1 T cells [1]; exposure to rhIL-21 vs control, around 60%) | adenosine generated in the presence of AMP (Vδ1 T cells [2]; IL-21-amplified Vδ1 T cells, control cells (only rhIL-2) ~0.4 μM) | IL-10 production after TCR/CD3 activation (Vδ1 T cells [3]; IL-21-amplified CD73+ Vδ1 T cells, not in the CD73− cells) | IL-10 in supernatants, absence of activation (Vδ1 T cells [3]; IL-21-amplified Vδ1 T cells, CD73+ or CD73−, not detected in control cells) | IL-8 production (Vδ1 T cells [3]; activated IL-21-amplified CD73+ Vδ1 T cells only) | TGF-β secretion (Vδ1 T cells [3]; any of the tested conditions) | adenosine production by control and IL-21-amplified Vδ1 T cells (Vδ1 T cells [2]; in the presence of the CD73 inhibitor)
1 | rhIL-21: recombinant IL-21 (rhIL-21) from Miltenyi Biotec, cytokine added with rhIL-2 to expand Vδ1 T cells | did not modify | 65% | 40% | 50% | did not modify | ~1.4 µM | strongly increased | basal level | highly present | did not detect | 
2 | Nc1ncnc2c1ncn2[C@@H]1O[C@H](COP(=O)([O-])CP(=O)(O)O)[C@@H](O)[C@H]1O.[Na+] [APCP, adenosine 5′-(α,β-methylene)-diphosphate sodium salt, reference compound] |  |  |  |  |  |  |  |  |  |  | strongly impaired

Source: patent publication US20230086718A1, “METHOD FOR PREDICTING THE SURVIVAL TIME OF A PATIENT SUFFERING FROM A CANCER” (INSERM (INSTITUT NATIONAL DE LA SANTÉ ET DE LA RECHERCHE …, priority 2020, published 2023)
